The subject of this assay is L1210 leukemia ip in BDF1 mice, survival T/C. Nature of the assay: NCI In Vivo Anticancer Drug Screen. Data for tumor model L1210 Leukemia (intraperitoneal) in B6D2F1 (BDF1) mice. To be noted: endpoint: mean survival time, higher = longer survival. An outline of the steps: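 Ratio derived from survival: compound-dosed mice over vehicle-dosed mice, all bearing a transplantable tumor.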

Setting [1] is: dose: 100.0 mg/kg/injection, schedule: Q01DX001 (ip), vehicle: other.
Setting [2] is: dose: 200.0 mg/kg/injection, schedule: Q01DX001 (ip), vehicle: other.
The mark [3] stands for this setting: dose: 400.0 mg/kg/injection, schedule: Q01DX001 (ip), vehicle: other.
The mark [4] stands for this setting: dose: 100.0 mg/kg/injection, schedule: Q01DX009 (ip), vehicle: Klucel (hydroxypropylcellulose) (HPC).
Setting [5] is: dose: 200.0 mg/kg/injection, schedule: Q01DX009 (ip), vehicle: Klucel (hydroxypropylcellulose) (HPC).
The mark [6] stands for this setting: dose: 400.0 mg/kg/injection, schedule: Q01DX009 (ip), vehicle: Klucel (hydroxypropylcellulose) (HPC).
Where [7] appears, read: dose: 100.0 mg/kg/injection, schedule: Q01DX009 (ip), vehicle: saline.
[8] abbreviates: dose: 200.0 mg/kg/injection, schedule: Q01DX009 (ip), vehicle: saline.
Where [9] appears, read: dose: 100.0 mg/kg/injection, schedule: Q01DX009 (ip), vehicle: saline with Tween-80.
Where [10] appears, read: dose: 100.0 mg/kg/injection, schedule: Q04DX002 (ip), vehicle: saline with Tween-80.
The mark [11] stands for this setting: dose: 200.0 mg/kg/injection, schedule: Q01DX009 (ip), vehicle: saline with Tween-80.
The mark [12] stands for this setting: dose: 200.0 mg/kg/injection, schedule: Q04DX002 (ip), vehicle: saline with Tween-80.
Where [13] appears, read: dose: 400.0 mg/kg/injection, schedule: Q01DX009 (ip), vehicle: saline with Tween-80.
Where [14] appears, read: dose: 400.0 mg/kg/injection, schedule: Q04DX002 (ip), vehicle: saline with Tween-80.
The mark [15] stands for this setting: dose: 400.0 mg/kg/injection, schedule: Q01DX001 (ip), vehicle: saline.

Where “and” joins values, the source holds several entries; their conditions need not be identical. Equal values may be shown once. Inconclusive results and toxic doses are left out.

In the case of `CC(=O)CCCCCCCCCCC1CCC2OC12` (stereo unspecified), the T/C under setting [1] is 101 % of control; the T/C (dose: 100.0 mg/kg/injection, schedule: Q01DX009 (sc), vehicle: other) was 109 % of control; the T/C (dose: 100.0 mg/kg/injection, schedule: Q04DX003 (ip), vehicle: other) was 95 % of control; the T/C under setting [2] was 115 % of control; the T/C (dose: 200.0 mg/kg/injection, schedule: Q01DX009 (sc), vehicle: other) is 98 % of control; the T/C (dose: 200.0 mg/kg/injection, schedule: Q04DX003 (ip), vehicle: other) was 94 % of control. Also, the T/C is 106 % of control under setting [3]; 97 % of control (dose: 400.0 mg/kg/injection, schedule: Q01DX009 (sc), vehicle: other); 102 % of control (dose: 400.0 mg/kg/injection, schedule: Q04DX003 (ip), vehicle: other).

Regarding `Cc1ccc(NC(=O)Nc2cccc(C(F)(F)F)c2)cc1C`, the T/C under setting [4] was 98 % of control, the T/C under setting [5] is 98 % of control and the T/C under setting [6] was 91 % of control.

With `CCOc1ccc(C(=O)/C=C\c2ccc(N(CC)CC)cc2)cc1`, the T/C reads like this: under setting [4], 96 % of control; under setting [5], 93 % of control; under setting [6], 91 % of control.

With `c1ccc(C2CCCCCC2)cc1`, the T/C was 104 % of control under setting [7]; 95 % of control under setting [8]; 90 % of control (dose: 400.0 mg/kg/injection, schedule: Q01DX009 (ip), vehicle: saline).

Consider `CSc1ccc(NC(=O)Oc2cc3ccccc3cc2C(=O)Nc2ccc(Cl)cc2)cc1`, for which the T/C runs as follows: under setting [9], 99 % of control and 86 % of control; under setting [10], 88 % of control; (dose: 100.0 mg/kg/injection, schedule: Q04DX003 (ip), vehicle: saline with Tween-80) 90 % of control; under setting [11], 111 % of control and 89 % of control; under setting [12], 91 % of control and 92 % of control; (dose: 200.0 mg/kg/injection, schedule: Q04DX003 (ip), vehicle: saline with Tween-80) 92 % of control. Also, the T/C by setting is: under setting [13], 95 % of control and 96 % of control; under setting [14], 94 % of control and 103 % of control; (dose: 400.0 mg/kg/injection, schedule: Q04DX003 (ip), vehicle: saline with Tween-80) 87 % of control.

For `Nn1cnc2c(=S)nc[nH]c21`, the T/C is, setting by setting: (dose: 42.0 mg/kg/injection, schedule: Q01DX015 (ip), vehicle: other) 101 % of control; (dose: 72.0 mg/kg/injection, schedule: Q01DX015 (ip), vehicle: other) 101 % of control; under setting [1], 102 % of control; (dose: 177.0 mg/kg/injection, schedule: Q01DX001 (ip), vehicle: other) 97 % of control; (dose: 177.0 mg/kg/injection, schedule: Q01DX001 (ip), vehicle: saline) 102 % of control; under setting [2], 102 % of control. The T/C is 86 % of control (dose: 200.0 mg/kg/injection, schedule: Q01DX015 (ip), vehicle: other); 115 % of control (dose: 266.0 mg/kg/injection, schedule: Q01DX001 (ip), vehicle: other); 101 % of control (dose: 266.0 mg/kg/injection, schedule: Q01DX001 (ip), vehicle: saline); 154 % of control and 164 % of control under setting [3]; 104 % of control under setting [15]; 167 % of control (dose: 600.0 mg/kg/injection, schedule: Q01DX001 (ip), vehicle: saline).

On to `O=C(O)C(Nc1ccc(Nc2ccccc2)cc1)c1ccccc1` (stereo unspecified), for which the T/C by setting is: (dose: 100.0 mg/kg/injection, schedule: Q04DX002 (ip), vehicle: Klucel (hydroxypropylcellulose) (HPC)) 100 % of control; (dose: 200.0 mg/kg/injection, schedule: Q04DX002 (ip), vehicle: Klucel (hydroxypropylcellulose) (HPC)) 103 % of control; (dose: 400.0 mg/kg/injection, schedule: Q04DX002 (ip), vehicle: Klucel (hydroxypropylcellulose) (HPC)) 114 % of control.

With `Nc1nc(N)c2cc(CNc3ccc(C(=O)NC(CCCC(=O)O)C(=O)O)cc3)ccc2n1` (stereo unspecified), the T/C (dose: 0.25 mg/kg/injection, schedule: Q01DX009 (ip), vehicle: saline) is 124 % of control; the T/C (dose: 0.5 mg/kg/injection, schedule: Q01DX009 (ip), vehicle: saline) is 117 % of control; the T/C (dose: 2.0 mg/kg/injection, schedule: Q01DX009 (ip), vehicle: saline) is 101 % of control; the T/C (dose: 16.0 mg/kg/injection, schedule: Q04DX003 (ip), vehicle: saline) was 92 % of control.

For `CCC(=O)ONO`, the T/C (dose: 50.0 mg/kg/injection, schedule: Q01DX009 (ip), vehicle: saline) was 94 % of control; the T/C under setting [7] was 102 % of control; the T/C under setting [8] is 94 % of control.

As for `O=C1NC(=O)/C(=C\c2ccc(OCc3ccccc3)c(OCc3ccccc3)c2)N1`, the T/C runs as follows: (dose: 100.0 mg/kg/injection, schedule: Q01DX001 (ip), vehicle: saline with Tween-80) 88 % of control; (dose: 400.0 mg/kg/injection, schedule: Q01DX001 (ip), vehicle: saline with Tween-80) 96 % of control.

In the case of `Cc1nc2nc3c(ncn3C3OC(CO)C(O)C3O)c(=O)n2nc1C` (stereo unspecified), the T/C runs as follows: (dose: 100.0 mg/kg/injection, schedule: Q01DX005 (ip), vehicle: saline) 102 % of control; (dose: 200.0 mg/kg/injection, schedule: Q01DX005 (ip), vehicle: saline) 92 % of control.

As for `CCOC(=O)C(Cc1ccc(O)cc1)Nc1nc2ccccc2o1` (stereo unspecified), the T/C is 96 % of control (dose: 100.0 mg/kg/injection, schedule: Q01DX001 (ip), vehicle: carboxymethylcellulose (CMC)); 96 % of control (dose: 200.0 mg/kg/injection, schedule: Q01DX001 (ip), vehicle: carboxymethylcellulose (CMC)); 96 % of control (dose: 400.0 mg/kg/injection, schedule: Q01DX001 (ip), vehicle: carboxymethylcellulose (CMC)).

As to `Cn1c(=O)c2c(nc(N/N=C/c3ccc(O)cc3)n2C)n(C)c1=O`, the T/C is, setting by setting: (dose: 44.0 mg/kg/injection, schedule: Q01DX Z (ip), vehicle: methylcellulose (MC)) 94 % of control; (dose: 66.0 mg/kg/injection, schedule: Q01DX Z (ip), vehicle: methylcellulose (MC)) 97 % of control; (dose: 100.0 mg/kg/injection, schedule: Q01DX Z (ip), vehicle: methylcellulose (MC)) 96 % of control.

Consider `COc1ccc(-c2c(C)c(C)[nH]c(=O)c2C(=O)O)c(OCc2ccccc2)c1OC`, for which the T/C reads like this: under setting [9], 100 % of control; under setting [11], 100 % of control; under setting [13], 97 % of control.

Turning to `CC(SC(C)C(=O)NN)C(=O)NN` (stereo unspecified), the T/C (dose: 50.0 mg/kg/injection, schedule: Q01DX001 (ip), vehicle: saline) is 102 % of control; the T/C (dose: 100.0 mg/kg/injection, schedule: Q01DX001 (ip), vehicle: saline) is 107 % of control; the T/C (dose: 200.0 mg/kg/injection, schedule: Q01DX001 (ip), vehicle: saline) was 105 % of control; the T/C (dose: 200.0 mg/kg/injection, schedule: Q01DX Z (ip), vehicle: carboxymethylcellulose (CMC)) was 94 % of control; the T/C (dose: 296.0 mg/kg/injection, schedule: Q01DX Z (ip), vehicle: methylcellulose (MC)) was 98 % of control; the T/C (dose: 370.0 mg/kg/injection, schedule: Q01DX Z (ip), vehicle: methylcellulose (MC)) is 104 % of control. For the same compound, the T/C was 100 % of control under setting [15]; 97 % of control (dose: 400.0 mg/kg/injection, schedule: Q01DX Z (ip), vehicle: carboxymethylcellulose (CMC)); 110 % of control (dose: 555.0 mg/kg/injection, schedule: Q01DX Z (ip), vehicle: methylcellulose (MC)); 111 % of control (dose: 800.0 mg/kg/injection, schedule: Q01DX Z (ip), vehicle: carboxymethylcellulose (CMC)); 119 % of control (dose: 833.0 mg/kg/injection, schedule: Q01DX Z (ip), vehicle: methylcellulose (MC)).

On to `Cc1cccc(NC(=S)N2CCCCC2)c1`, for which the T/C under setting [10] is 100 % of control, the T/C under setting [12] is 100 % of control and the T/C under setting [14] was 100 % of control.

The values above are taken from PubChem BioAssay AID248 (DTP/NCI, 2004).
